# Measurements as given in BindingDB's records for doi:10.1016/j.ejmech.2009.09.025 (2010).
# pIC50: −log10 of the molar value.
# Molecular target: Glutamate receptor ionotropic, kainate 2 (GluK2/GRIK2) (Homo sapiens) (UniProt Q13002)
# Test: Antagonist activity at human recombinant GluR6 expressed in HEK cells coexpressing aequorine assessed as inhibition of glutamate-induced Ca2+ influx at 10 uM by luminescence reporter assay
# Chain of Glutamate receptor ionotropic, kainate 2 (GluK2/GRIK2) (Homo sapiens) (Q13002 whole entry, looked up): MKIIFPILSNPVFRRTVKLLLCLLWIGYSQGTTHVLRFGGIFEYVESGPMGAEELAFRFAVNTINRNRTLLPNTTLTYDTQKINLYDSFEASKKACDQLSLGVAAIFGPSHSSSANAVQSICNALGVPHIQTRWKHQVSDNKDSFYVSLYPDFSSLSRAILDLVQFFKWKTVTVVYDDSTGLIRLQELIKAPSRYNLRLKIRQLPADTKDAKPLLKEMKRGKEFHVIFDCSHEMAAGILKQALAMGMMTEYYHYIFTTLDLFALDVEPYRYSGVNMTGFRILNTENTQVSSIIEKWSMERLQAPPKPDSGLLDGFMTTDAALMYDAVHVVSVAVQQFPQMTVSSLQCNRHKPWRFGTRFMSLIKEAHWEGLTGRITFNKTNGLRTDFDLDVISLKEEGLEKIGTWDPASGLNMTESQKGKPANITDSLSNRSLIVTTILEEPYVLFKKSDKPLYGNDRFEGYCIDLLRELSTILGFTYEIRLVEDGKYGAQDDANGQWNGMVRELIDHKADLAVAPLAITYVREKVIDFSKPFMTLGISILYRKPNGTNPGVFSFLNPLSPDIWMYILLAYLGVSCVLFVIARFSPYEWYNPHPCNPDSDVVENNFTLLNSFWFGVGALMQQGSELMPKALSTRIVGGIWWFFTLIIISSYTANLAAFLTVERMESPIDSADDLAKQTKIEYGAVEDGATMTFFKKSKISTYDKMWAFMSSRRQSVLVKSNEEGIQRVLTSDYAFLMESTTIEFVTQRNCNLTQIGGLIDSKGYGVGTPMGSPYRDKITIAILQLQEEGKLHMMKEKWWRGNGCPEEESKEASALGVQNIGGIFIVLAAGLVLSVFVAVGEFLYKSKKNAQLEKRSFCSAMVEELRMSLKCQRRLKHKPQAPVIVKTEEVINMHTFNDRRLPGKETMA
row,pIC50,Compound
1,4.97,Cc1c(-c2ccccc2)sc(N)c1C(=O)c1ccccc1 [(2-Amino-4-methyl-5-phenylthiophen-3-yl)(phenyl)methanone]
2,5.35,"CCOC(=O)c1c(N)sc(-c2ccccc2)c1-c1ccccc1 [Ethyl 2-amino-4,5-diphenylthiophene-3-carboxylate]"
3,6.12,CCOC(=O)c1c(N)sc(-c2ccccc2)c1C [Ethyl 2-amino-4-methyl-5-phenylthiophene-3-carboxylate]
4,5.39,COC(=O)c1c(N)sc(-c2ccccc2)c1C [Methyl 2-amino-4-methyl-5-phenylthiophene-3-carboxylate]
5,5.62,CCCOC(=O)c1c(N)sc(-c2ccccc2)c1C [Propyl 2-amino-4-methyl-5-phenylthiophene-3-carboxylate]
6,5.44,Cc1c(-c2ccccc2)sc(N)c1C(=O)OC(C)(C)C [Tert-Butyl 2-amino-4-methyl-5-phenylthiophene-3-carboxylate]

# Second part, the compound before the results:
row,Compound,pIC50
1,Cc1c(-c2ccccc2)sc(N)c1C#N [2-Amino-4-methyl-5-phenylthiophene-3-carbonitrile],4.15
2,C[C@H](C[C@H](N)C(=O)O)C(=O)O [2-Amino-4-methyl-pentanedioic acid],5.40
3,CCOC(=O)c1c(N=C=S)sc(-c2ccccc2)c1C [2-isothiocyanato-4-methyl-5-phenylthiophene-3-carboxylate],5.46
4,"N#Cc1cc2c(cc1[N+](=O)[O-])=NC(=O)C(=O)N=2 [7-nitro-2,3-dioxo-2,3-dihydroquinoxaline-6-carbonitrile]",4.64
5,Clc1ccc(CO[C@@H](Cn2ccnc2)c2ccc(Cl)cc2Cl)c(Cl)c1 [Brentan],5.19
6,"CCOC(=O)c1c(N=NN(C)C)sc(-c2ccccc2)c1C [Ethyl 2-(3,3-dimethyltriaz-1-enyl)-4-methyl-5-phenylthiophene-3-carboxylate]",4.42
7,CCOC(=O)c1c(N=NC#N)sc(-c2ccccc2)c1C [Ethyl 2-(cyanodiazenyl)-4-methyl-5-phenylthiophene-3-carboxylate],4.68
8,CCOC(=O)c1c(N)sc(-c2ccccc2Cl)c1C [Ethyl 2-amino-5-(2-chlorophenyl)-4-methylthiophene-3-carboxylate],5.24
9,CCOC(=O)c1c(N)sc(-c2ccc(F)cc2)c1C [Ethyl 2-amino-5-(4-fluorophenyl)-4-methylthiophene-3-carboxylate],4.92
10,CCOC(=O)c1c(N)sc(-c2ccc(OC)cc2)c1C [Ethyl 2-amino-5-(4-methoxyphenyl)-4-methylthiophene-3-carboxylate],5.07
11,CCOC(=O)c1c(Cl)sc(-c2ccccc2)c1C [Ethyl 2-chloro-4-methyl-5-phenylthiophene-3-carboxylate],5.00
12,CCOC(=O)c1c(N=NN2CCOCC2)sc(-c2ccccc2)c1C [Ethyl 4-methyl-2-(morpholinodiazenyl)-5-phenylthiophene-3-carboxylate],4.27

# Molecular target: Glutamate receptor ionotropic, kainate 1 (GluK1/GRIK1) (Homo sapiens) (UniProt P39086)
# Test: Antagonist activity at human recombinant GluR5 expressed in HEK cells coexpressing aequorine assessed as inhibition of glutamate-induced Ca2+ influx by luminescence reporter assay
# Chain of Glutamate receptor ionotropic, kainate 1 (GluK1/GRIK1) (Homo sapiens) (P39086 whole entry, looked up): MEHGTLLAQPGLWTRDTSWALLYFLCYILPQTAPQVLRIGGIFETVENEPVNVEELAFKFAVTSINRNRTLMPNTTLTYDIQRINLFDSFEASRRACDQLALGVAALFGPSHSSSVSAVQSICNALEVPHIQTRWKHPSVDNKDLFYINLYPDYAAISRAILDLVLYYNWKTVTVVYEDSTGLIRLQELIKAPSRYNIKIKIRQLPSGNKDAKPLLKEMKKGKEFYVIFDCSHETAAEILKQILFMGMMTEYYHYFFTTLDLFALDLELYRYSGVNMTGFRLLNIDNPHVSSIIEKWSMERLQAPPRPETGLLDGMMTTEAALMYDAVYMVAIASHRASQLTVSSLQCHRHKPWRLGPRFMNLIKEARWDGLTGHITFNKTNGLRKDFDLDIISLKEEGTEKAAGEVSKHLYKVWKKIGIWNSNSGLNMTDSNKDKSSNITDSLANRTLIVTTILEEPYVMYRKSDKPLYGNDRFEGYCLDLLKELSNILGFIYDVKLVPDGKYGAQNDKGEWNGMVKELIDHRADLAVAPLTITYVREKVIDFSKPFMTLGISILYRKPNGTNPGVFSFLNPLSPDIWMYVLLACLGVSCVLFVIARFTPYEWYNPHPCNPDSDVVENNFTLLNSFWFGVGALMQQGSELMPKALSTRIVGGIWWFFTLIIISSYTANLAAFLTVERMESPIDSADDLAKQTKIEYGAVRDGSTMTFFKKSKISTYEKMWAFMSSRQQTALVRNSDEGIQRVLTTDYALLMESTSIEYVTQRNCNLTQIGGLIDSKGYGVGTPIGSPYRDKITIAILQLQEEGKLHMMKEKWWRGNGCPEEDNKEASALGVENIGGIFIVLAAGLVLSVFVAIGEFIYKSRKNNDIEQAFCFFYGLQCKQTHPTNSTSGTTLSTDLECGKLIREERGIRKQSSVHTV
row,pIC50,Compound
1,4.52,COC(=O)c1c(N)sc(-c2ccccc2)c1C [Methyl 2-amino-4-methyl-5-phenylthiophene-3-carboxylate]
